Among the data in patent US8802720B2, “Acylamino-substituted fused cyclopentanecarboxylic acid derivatives and their use as pharmaceuticals” (SANOFI, priority 2008, dated 2014) are IC50 values, retold here.

Each structure is given as a SMILES string. Where only a bound is given, the exact number is not on record here.

For the assay, the target named is human Edg-2 receptor (LPA1 receptor) (Homo sapiens, UniProt Q92633). Description: Edg-2 receptor inhibition by FLIPR calcium fluorescence measurement (LPA-mediated calcium liberation). It is filed as cell-based. The conditions noted are these: CHO cells stably overexpressing human Edg-2 receptor; LPA 18:1 100 nM; fluo-4 fluorescence; triplicate; read-out: Inhibitory concentrations IC50 for inhibition of the Edg-2 receptor. As for the experimental part:
A) Determination of Edg-2 Receptor Inhibition by Fluorescence Imaging Plate Reader (FLIPR) Measurements
The inhibition of the Edg-2 receptor (LPA1 receptor) by the compounds of the invention was quantified by the inhibitory effect on the LPA-mediated calcium liberation in a cell-based calcium fluorescence assay by use of Chinese hamster ovarian (CHO) cells in which the human Edg-2 receptor was stably overexpressed (FIp-In system, Invitrogen). […] Changes in intracellular calcium were determined by fluorescence measurement with the calcium-sensitive dye fluo-4 (Invitrogen) in a fluorescence imaging plate reader (FLIPR, […]).
CHO cells stably overexpressing the human Edg-2 receptor were seeded (40.000 per well) in black clear-bottomed poly-D-lysine-coated 96 well plates (Becton Dickinson, Biocoat cellware) approximately 18-24 h prior to the experiments. Cells were grown in an incubator at 37° C., 5% carbon dioxide and 95% humidity in cell culture media based on F-12 glutamax media (Gibco, #31765) supplemented with 1% (vol/vol) penicilline/streptomycine (PAN, #P06-07100), 10% (vol/vol) fetal calf serum (FCS, PAA, #A15-151) and hygromycin B (Invitrogen, #10687-010) 300 mg/l (final concentrations).
Prior to the FLIPR experiment, cells were loaded with fluo-4 acetoxymethyl ester (fluo-4 AM, Invitrogen, #F14202) for 60 min in an incubator at 37° C., 5% carbon dioxide and 95% humidity in dye-loading buffer consisting of Hanks' Balanced Salt Solution (HBSS, Invitrogen, #14065049) supplemented with fluo-4 AM at 2 μM (all data given for final concentration), Pluronic® F-127 0.05% (vol/vol) (Invitrogen, #P-3000 MP), HEPES 20 mM (Gibco, #15630), probenecid 2.5 mM (Sigma, #P-8761) and bovine serum albumin 0.05% (BSA, Sigma, #A-6003), adjusted to pH 7.5 with sodium hydroxide. During cell loading, fluo-4 AM is cleaved by intracellular esterase resulting in trapping of the dye fluo-4 within the cells. Loading was terminated by washing of the cells in a cell washer (Tecan Power washer) three times with the buffer specified afore but without fluo-4 AM and BSA. This latter buffer was also used as the buffer in the subsequent cell fluorescence measurements.
The dye-loaded and washed cells were pre-incubated for approximately 5 min with various concentrations of the test compound added as a solution in DMSO (0.3% vol/vol maximum final concentration of DMSO), or with DMSO in the respective concentration only (positive control). Subsequent addition of LPA (18:1, 1-oleoyl-sn-glycerol 3-phosphate; 100 nM final concentration) leads to liberation of intracellular calcium from internal stores resulting in a large transient increase of the fluo-4 fluorescence signal which was monitored over approximately 3 min. The percent inhibition caused by the test compound was determined from the maximum fluorescence response after LPA addition to cells pre-incubated with the compound as compared to the maximum fluorescence response after LPA addition to cells pre-incubated with DMSO only. All fluorescence values were corrected for the baseline fluorescence values obtained with cells which were pre-incubated with DMSO only and were not treated with LPA (baseline control). All measurements were performed in triplicate. From the percent inhibitions the inhibitory concentration IC50 was determined.

Sequence of human Edg-2 receptor (LPA1 receptor) (Q92633 whole entry): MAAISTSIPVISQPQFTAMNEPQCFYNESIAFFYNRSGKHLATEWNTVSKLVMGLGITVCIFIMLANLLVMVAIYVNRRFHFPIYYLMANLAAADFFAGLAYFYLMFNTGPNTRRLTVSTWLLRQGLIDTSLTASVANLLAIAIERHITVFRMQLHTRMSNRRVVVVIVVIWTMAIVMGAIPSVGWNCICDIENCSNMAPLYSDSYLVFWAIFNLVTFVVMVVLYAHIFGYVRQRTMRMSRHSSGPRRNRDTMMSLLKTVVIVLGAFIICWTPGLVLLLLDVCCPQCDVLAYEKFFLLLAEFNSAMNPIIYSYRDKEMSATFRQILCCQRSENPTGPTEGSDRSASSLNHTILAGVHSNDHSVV

With `COc1ccc(C(=O)NC2(C(=O)O)Cc3ccccc3C2)cc1OCCc1cccc(C(=O)O)c1` [Example 96, 2-{3-[2-(3-Carboxy-phenyl)-ethoxy]-4-methoxy-benzoylamino}-indane-2-carboxylic acid], the IC50 lay in the range of 1 to 30 µM.
Regarding `COc1ccc(C(=O)NC2(C(=O)O)Cc3ccccc3C2)cc1-c1cc(F)ccc1OC(C)C` [Example 335], the IC50 was under 0.1 µM.
The same measure for `COc1ccc(C(=O)NC2(C(=O)O)Cc3ccccc3C2)cc1OCCc1cccc(C2CC2)c1` [Example 21, 2-{3-[2-(3-cyclopropyl-phenyl)-ethoxy]-4-methoxy-benzoylamino}-indane-2-carboxylic acid]: under 0.1 µM.
The same measure for `CCOc1ccc(COc2cc(C(=O)NC3(C(=O)O)Cc4ccccc4C3)ccc2OC)cc1` [Example 29]: 1 to 30 µM.
The same measure for `Cc1cccc(CCOc2cc(C(=O)NC3(C(=O)O)Cc4ccccc4C3)ccc2C(C)O)c1` (stereo not shown) [Example 9, 2-[4-(1-Hydroxy-ethyl)-3-(2-m-tolyl-ethoxy)-benzoylamino]-indane-2-carboxylic acid]: 0.1 to 1 µM; for `COc1ccc(C(=O)NC2(C(=O)O)Cc3ccccc3C2)cc1-c1ccc(Cl)cc1` [Example 280]: 0.1 to 1 µM.
`COc1ccc(C(=O)NC2(C(=O)O)Cc3ccccc3C2)cc1OCCCN1CCCC1=O` [Example 68]: the IC50 is 1 to 30 µM.
The same measure for `COCCOCCOc1cc(C(=O)NC2(C(=O)O)Cc3ccccc3C2)ccc1OC` [Example 28]: 1 to 30 µM; for `COc1ccc(C(=O)NC2(C(=O)O)Cc3ccccc3C2)cc1OCC(F)(F)c1cccc(Cl)c1` [Example 212, 2-{3-[2-(3-Chloro-phenyl)-2,2-difluoro-ethoxy]-4-methoxy-benzoylamino}-indane-2-carboxylic acid]: under 0.1 µM; for `COc1ccc(C(=O)NC2(C(=O)O)Cc3ccccc3C2)cc1-c1cccc(CCC(=O)O)c1` [Example 328]: 0.1 to 1 µM.
On to `COc1ccc(C(=O)NC2(C(=O)O)Cc3ccccc3C2)cc1-c1cccc(OCc2ccccc2)c1` [Example 305], for which the IC50 lay in the range of 0.1 to 1 µM.
With `COc1ccc(C(=O)NC2(C(=O)O)Cc3cccc(Cl)c3C2)cc1OCCc1cccc(C)c1` (stereo not shown) [Example 217, 4-Chloro-2-[4-methoxy-3-(2-m-tolyl-ethoxy)-benzoylamino]-indane-2-carboxylic acid], the IC50 was under 0.1 µM.
In the case of `COc1ccc(C(=O)NC2(C(=O)O)Cc3ccccc3C2)cc1OCC(O)c1ccccc1F` (stereo not shown) [Example 167, 2-{3-[2-(2-Fluoro-phenyl)-2-hydroxy-ethoxy]-4-methoxy-benzoylamino}-indane-2-carboxylic acid] it was 1 to 30 µM.
The same measure for `COc1ncc(C(=O)NC2(C(=O)O)Cc3ccccc3C2)cc1-c1cccc(C)c1` [Example 224, 2-{[6-methoxy-5-(3-methyl-phenyl)-pyridine-3-carbonyl]-amino}-indane-2-carboxylic acid]: under 0.1 µM; for `CCc1ccc(CCOc2cc(C(=O)NC3(C(=O)O)Cc4ccccc4C3)ccc2OC)nc1` [Example 205, 2-{3-[2-(5-Ethyl-pyridin-2-yl)-ethoxy]-4-methoxy-benzoylamino}-indane-2-carboxylic acid]: 1 to 30 µM.
In the case of `COc1ccc(C(=O)NC2(C(=O)O)Cc3ccccc3C2)cc1OCCc1cccc(CCNC(C)=O)c1` [Example 247, 2-(3-{2-[3-(2-Acetylamino-ethyl)-phenyl]-ethoxy}-4-methoxy-benzoylamino)-indane-2-carboxylic acid] it was 0.1 to 1 µM.
In the case of `COc1ccc(C(=O)NC2(C(=O)O)Cc3ccccc3C2)cc1-c1cccc(NC(=O)C(C)C)c1` [Example 350], the IC50 was in the range of 1 to 30 µM.
In the case of `Cc1cccc(CCOc2cc(C(=O)NC3(C(=O)O)Cc4ccccc4C3)ccc2OCCF)c1` [Example 268] it was under 0.1 µM; in that of `COc1ccc(C(=O)NC2(C(=O)O)Cc3ccccc3C2)cc1-c1cc(Cl)ccc1F` [Example 332], 0.1 to 1 µM.
In the case of `O=C(NC1(C(=O)O)Cc2ccccc2C1)c1ccc(C(F)(F)F)c(OCCc2cc(Cl)ccc2F)c1` [Example 189] it was under 0.1 µM; in that of `COc1ccc(C(=O)NC2(C(=O)O)Cc3ccccc3C2)cc1-c1cc(Cl)ccc1Cl` [Example 303], under 0.1 µM.
Consider `COc1ccc(C(=O)NC2(C(=O)O)Cc3ccccc3C2)cc1OCC(C)C` [Example 35], for which the IC50 was 1 to 30 µM.
In the case of `CCS(=O)(=O)c1cccc(-c2cc(C(=O)NC3(C(=O)O)Cc4ccccc4C3)ccc2OC)c1` [Example 312, 2-[(3′-ethanesulfonyl-6-methoxy-biphenyl-3-carbonyl)-amino]-indane-2-carboxylic acid] it was 0.1 to 1 µM.
In the case of `COc1ccc(C(=O)NC2(C(=O)O)Cc3ccccc3C2)cc1N(C)CCc1cccc(C)c1` [Example 172, 2-{4-Methoxy-3-[methyl-(2-m-tolyl-ethyl)-amino]-benzoylamino}-indane-2-carboxylic acid] it was 1 to 30 µM; in that of `COc1ccc(C(=O)NC2(C(=O)O)Cc3ccccc3C2)c(F)c1OCCc1cccc(C)c1` [Example 277, 2-[2-Fluoro-4-methoxy-3-(2-m-tolyl-ethoxy)-benzoylamino]-indane-2-carboxylic acid], 1 to 30 µM; in that of `COc1ccc(C(=O)NC2(C(=O)O)Cc3ccccc3C2)cc1-c1cccc(Cl)c1Cl` [Example 293], under 0.1 µM.
In the case of `COCCOc1cc(C(=O)NC2(C(=O)O)Cc3ccccc3C2)ccc1OC` [Example 33] it was 1 to 30 µM.
As for `Cc1cccc(CCOc2cc(C(=O)NC3(C(=O)O)Cc4ccccc4C3)ccc2C)c1` [Example 129], the IC50 lay in the range of 0.1 to 1 µM.
In the case of `COc1ccc(C(=O)NC2(C(=O)O)Cc3ccccc3C2)cc1OCC1(c2cccc(C)c2)CC1` [Example 24] it was under 0.1 µM; in that of `COc1ccc(C(=O)NC2(C(=O)O)Cc3ccccc3C2)cc1OCCc1ccsc1` [Example 146], 0.1 to 1 µM.
Take `COc1cc(-c2cc(C(=O)NC3(C(=O)O)Cc4ccccc4C3)ccc2OC)cc(C(F)(F)F)c1` [Example 349]: the IC50 was under 0.1 µM.
Consider `COc1ncc(C(=O)NC2(C(=O)O)Cc3ccccc3C2)cc1-c1ccccc1Cl` [Example 225], for which the IC50 lay in the range of 0.1 to 1 µM.
In the case of `COc1ccc(C(=O)NC2(C(=O)O)Cc3ccccc3C2)cc1OCCc1noc2ccccc12` [Example 354] it was 1 to 30 µM; in that of `COc1ccc(C(=O)NC2(C(=O)O)Cc3ccccc3C2)cc1NC(=O)Cc1ccccc1` [Example 117, 2-(4-Methoxy-3-phenylacetylamino-benzoylamino)-indane-2-carboxylic acid], 0.1 to 1 µM.
The same measure for `COc1ccc(C(=O)NC2(C(=O)O)Cc3ccccc3C2)cc1OCCc1c(F)cccc1Cl` [Example 152]: under 0.1 µM; for `COc1ccc(C(=O)NC2(C(=O)O)Cc3ccccc3C2)cc1OCCSc1nccn1C` [Example 75]: 1 to 30 µM.
The same measure for `COc1ccc(C(=O)NC2(C(=O)O)Cc3ccccc3C2)cc1OCCc1nonc1C` [Example 353]: 1 to 30 µM.
Regarding `CCCc1ccc(-c2cc(C(=O)NC3(C(=O)O)Cc4ccccc4C3)ccc2OC)cc1` [Example 290], the IC50 was in the range of 1 to 30 µM.
In the case of `COc1c(F)cc(C(=O)NC2(C(=O)O)Cc3ccccc3C2)cc1-c1cccc(NS(C)(=O)=O)c1` [Example 359] it was under 0.1 µM; in that of `Cc1cccc(CCOc2cc(C(=O)NC3(C(=O)O)Cc4ccccc4C3)ccc2OCC2CCC2)c1` [Example 262], under 0.1 µM; in that of `CCS(=O)(=O)c1cccc(-c2cc(C(=O)NC3(C(=O)O)Cc4ccccc4C3)cc(F)c2OC)c1` [Example 357, 2-[(3′-Ethanesulfonyl-5-fluoro-6-methoxy-biphenyl-3-carbonyl)-amino]-indane-2-carboxylic acid], under 0.1 µM.
The same measure for `COc1ccc(C(=O)NC2(C(=O)O)Cc3ccccc3C2)cc1OCCc1cccc(Cl)c1F` [Example 153]: 0.1 to 1 µM; for `COc1ccc(C(=O)NC2(C(=O)O)Cc3ccccc3C2)cc1OCCCCc1ccccc1` [Example 34]: 1 to 30 µM.
